Non-standard residues stand in square brackets, D forms with d. Residues, ends and D or L forms follow the SMILES beside them. *: point of attachment. dPhe(4-NHCONH2) = NC(=O)Nc1ccc(C[C@@H](N)C(=O)O)cc1; Dihydroorotyl(S) = O=C1C[C@@H](C(=O)*)NC(=O)N1; dPhe(4-Cl) = N[C@H](Cc1ccc(Cl)cc1)C(=O)O; Phe(4-NH2) = Nc1ccc(C[C@H](N)C(=O)O)cc1; d2Nal = N[C@H](Cc1ccc2ccccc2c1)C(=O)O; Lys(iPr) = CC(C)NCCCC[C@H](N)C(=O)O; d3Pal = N[C@H](Cc1cccnc1)C(=O)O
What was measured:
[1] = test system: Patient with Multiple Sclerosis; test: Multiple sclerosis patient treated with degarelix (with concomitant fampridine); format: in vivo, human
Description: • person, diagnosed with multiple sclerosis (MS). Their MS was of the progressive type; characterized by a steady deterioration in function. • Fulfilled the 2010 McDonald Criteria for the diagnosis of MS (1).
• So far results of clinical trials for progressive MS have generally been disappointing. Currently, there is no FDA-approved treatment for progressive MS disease. • December 2014 received first dose of degarelix 240 mg s.c. • Received degarelix 80 mg s.c. every two weeks thereafter.
• This patient's EDSS has remained stable at 6.5, as expected over such a short time period of 6 weeks. A score of 6.5 is equivalent to only being able to walk with the aid of a walker, as in their case. This was evident at baseline and 6 weeks.
• Patient-reported outcomes are of increasing importance in trials of progressive multiple sclerosis (2). The most frequently used global patient-reported outcome in multiple sclerosis is the MSIS-29 (3). This has been correlated with clinical and imaging metrics specifically in progressive forms of the disease (4). According to a recent review (2), patient reported outcomes in trials of progressive multiple sclerosis can be used to validate MRI or clinical metrics, and increased use of patient-reported outcomes in trials of progressive multiple sclerosis will be expected to help satisfy regulators' requirements that treatments show relevant benefit for patients. • At baseline, they scored 121 on the MSIS-29. By 6 weeks, their score was reduced to 110. A clinically significant minimal difference is a score change of 8. Therefore this reduction of 11 in their score is considered clinically significant (5).
• The MSWS-12 (6) was designed as a disease-specific patient-based instrument for use in clinical trials and clinical practice, to capture the complex impact of MS on walking ability. […] One of the most important attributes of the MSWS-12 in comparison to other assessments of walking in MS patients is its responsiveness to change. […] By 6 weeks, their score was reduced to 53. This is a 12% improvement. A minimal clinically significant difference has not yet been established.
• The MFIS-5 is a modified form of the Fatigue Impact Scale (10) based on items derived from interviews with MS patients concerning how fatigue impacts their lives. This instrument provides an assessment of the effects of fatigue in terms of physical, cognitive, and psychosocial functioning. • At baseline, they scored 20 on the MFIS-5. By 6 weeks, their score was reduced to 12. This was a reduction of 40%, which is clinically significant.
• The T25FW is another common endpoint in trials. At baseline, they took 16.7 seconds to walk 25 feet, and by 6 weeks they took 15.2 seconds. This improvement in walking speed supports the patient's reported improved outcomes. […] This improvement in progressive MS is likely to also be observed in the relapsing-remitting type of MS. This is because the relapsing-remitting type gives similar signs and symptoms as the progressive type to patients over time.
• For the last 2.5 years, they had been taking stable concomitant fampridine, a potassium channel blocker, for symptomatic treatment for MS. Their MS disease activity had been increasing gradually over these 2.5 years, requiring them to use crutches, and eventually a walker. In December 2014, they started experimental treatment with degarelix. […] They describe in an interview that for the first time they could easily complete certain exercises with their under extremities that they had previously never been able to do during their physiotherapy visits. • Due to this effect, they decided to discontinue their long-term stable fampridine medication on 05.04.15. […] This improvement in progressive MS is likely to also be observed in the relapsing-remitting type of MS. This is because the relapsing-remitting type gives similar signs and symptoms as the progressive type to patients over time.

Patient with Lupus = test: Lupus patient treated with degarelix (and earlier therapies); format: in vivo, human
Description: Example of Treating a Patient with Lupus with a GnRH Antagonist
Due to their painful condition, they have been followed up by a pain clinic. They were offered a tricyclic antidepressant, amitriptyline 25 mg in March 2014 for their painful condition.
Therefore, we decided to offer […] degarelix. GnRH antagonists have shown anti-inflammatory effects and therefore we considered that degarelix, a depot GnRH antagonist, may have a therapeutic effect in lupus. 09.15.14, […] received […] loading dose of degarelix, 240 mg s.c.
They received their second dose of degarelix in October 2014, 80 mg s.c. They continue on 80 mg s.c. every two weeks.

[2] = progressive MS patient, by 6 weeks

`CC(=O)N[C@H](Cc1ccc2ccccc2c1)C(=O)N[C@H](Cc1ccc(Cl)cc1)C(=O)N[C@H](Cc1cccnc1)C(=O)N[C@@H](CO)C(=O)N[C@@H](Cc1ccc(NC(=O)[C@@H]2CC(=O)NC(=O)N2)cc1)C(=O)N[C@H](Cc1ccc(NC(N)=O)cc1)C(=O)N[C@@H](CC(C)C)C(=O)N[C@@H](CCCCNC(C)C)C(=O)N1CCC[C@H]1C(=O)N[C@H](C)C(N)=O` [degarelix] (Ac-[d2Nal][dPhe(4-Cl)][d3Pal]S[Phe(4-NH2)](Dihydroorotyl(S))[dPhe(4-NHCONH2)]L[Lys(iPr)]P[dA]-NH2) was tested, and the Timed walk test ([1]; MS patient, 29.4.15, after fampridine discontinued 05.04.15, from 11.9) was 14.0 s, the “Expanded Disability Status Scale (EDSS)” value ([1]; progressive MS patient, 6 weeks, stable vs baseline) was 6.5 and the MFIS-5 reduction [1, 2] was 40%. The MSIS-29 score reduction [1, 2] was 11, the MSWS-12 improvement [1, 2] was 12% and the MFIS-5 score ([1]; progressive MS patient, by 6 weeks, baseline 20) was 12. The MSWS-12 score ([1]; progressive MS patient, by 6 weeks, baseline 60) was 53, the MSIS-29 score ([1]; progressive MS patient, by 6 weeks, baseline 121) was 110 and the “Timed 25 Foot Walk (T25FW)” value ([1]; progressive MS patient, by 6 weeks, stable fampridine, baseline 16.7) was 15.2 s. The “General function (patient reported)” value ([1]; progressive MS patient, from around 4 weeks, further by 6 weeks) was “general improvement”, the Total urinary protein (Patient with Lupus; 7 Nov. 2014, 15 Sep. 2014 0.78) was 0.17 g/L and the “LH (<12)” value (Patient with Lupus; 7 Nov. 2014, 15 Sep. 2014 11) was under 0.3. The “FSH (<12)” value (Patient with Lupus; 7 Nov. 2014, 15 Sep. 2014 14) was under 0.1, the “ANA (<1)” value (Patient with Lupus; 7 Nov. 2014, 15 Sep. 2014 >32 out of range) was 26↑ and the Total urinary protein (Patient with Lupus; 14 Oct. 2014, 15 Sep. 2014 0.78) was 0.15 ^2 g/L. The “FSH (<12)” value (Patient with Lupus; 14 Oct. 2014, 15 Sep. 2014 14) was under 0.1, the “ANA (<1)” value (Patient with Lupus; 14 Oct. 2014, 15 Sep. 2014 >32 out of range) was 28↑ and the Total urinary protein (Patient with Lupus; 23 Sep. 2014, 15 Sep. 2014 0.78) was 0.75 ↑ g/L. The “LH (<12)” value (Patient with Lupus; 23 Sep. 2014, 15 Sep. 2014 11) was under 0.3, the “FSH (<12)” value (Patient with Lupus; 23 Sep. 2014, 15 Sep. 2014 (loading dose day) 14) was 2 and the “ANA (<1)” value (Patient with Lupus; 25 Sep. 2014, 15 Sep. 2014 >32 out of range) was 31 ↑. For the same molecule, the Parasthesias (Patient with Lupus; by 1 month of treatment, balance improved) was “no longer has parasthesias”, the Proteinuria (Patient with Lupus; by 1 month, still in remission at 2 months) was “complete remission” and the Morning pain (Patient with Lupus; by 8 weeks, before 3.5 hours) was 0 h. For the same molecule, the Morning pain (Patient with Lupus; by day 5, before 3.5 hours) was 1.5 h, the Morning pain (Patient with Lupus; by day 10, before 3.5 hours) was 0 h and the “Ulcers on toes and hands” value (Patient with Lupus; by day 10 of treatment) was “several ulcers had healed”. For the same molecule, the Foot erythema (Patient with Lupus; week 8 (FIG. 8)) was “decreased”.

Reference: patent US20160346255A1, “METHODS, AGENTS AND COMPOSITIONS FOR TREATMENT OF INFLAMMATORY CONDITIONS” (Betanien Hospital, priority 2014, published 2016)
